Source: patent US20040049086A1, “Diphenol and process for producing the same” (priority 2001, published 2004)

| SMILES | melting point [°C] |
| --- | --- |
| Cc1cc(C2CCC(c3ccc(O)cc3)CC2)ccc1O (stereo not drawn) [Example 1 of Example B, 4-(4′-(4″-hydroxyphenyl)cyclohexyl)-2-methyl-1-hydroxybenzene] | 159 |
| Cc1cc(-c2ccc(-c3ccc(O)cc3)cc2)ccc1O [Example 1 of Example C, 4-hydroxy-3″-methyl-4″-hydroxy-p-terphenyl] | 251.4 |
| Cc1cc(C2=CCC(c3ccc(O)cc3)CC2)ccc1O (stereo not drawn) [Example 2 of Example A, 1-(3-methyl-4-hydroxyphenyl)-4-(4-hydroxyphenyl)-1-cyclohexene] | 201 |
| Cc1cc(-c2ccc(-c3ccc(O)cc3)cc2)cc(C)c1O [Example 2 of Example C, 4-hydroxy-3″,5″-dimethyl-4″-hydroxy-p-terphenyl] | 231 |
| CC(C)(C)c1cc(C2=CCC(c3ccc(O)cc3)CC2)ccc1O (stereo not drawn) [Example 4 of Example A, 1-(3-t-butyl-4-hydroxyphenyl)-4-(4-hydroxyphenyl)-1-cyclohexene] | 188 |
| Cc1cc(C2=CCC(c3ccc(O)cc3)CC2)cc(C)c1O (stereo not drawn) [Example 5 of Example A, 1-(3,5-dimethyl-4-hydroxyphenyl)-4-(4-hydroxyphenyl)-1-cyclohexene] | 224 |
